The target of assay [1] is EIF2AK3 (PERK) catalytic domain (amino acids 536-1116) (Homo sapiens (Human), UniProt Q9NZJ5). Kind of assay: PERK in vitro activity assay (isolated), TR-FRET kinase assay. The settings on record: isolated PERK enzyme, 1.5 μM ATP, GFP-eIF2a substrate; read-out: Biochemical IC50. From the text: PERK In Vitro Activity Assay (Isolated):
In vitro Inhibition of PERK Enzyme Activity (isolated) Recombinant human EIF2AK2 (PKR) catalytic domain (amino acids 252-551), EIF2AK3 (PERK) catalytic domain (amino acids 536-1116), GFP-eIF2a substrate, and Terbium-labelled phospho-eIF2a antibody is obtained (Invitrogen, Carlsbad, CA).
Express and purify HIS-SUMO-GCN2 catalytic domain (amino acids 584-1019) from E. coli. Perform TR-FRET kinase assays in the absence or presence of inhibitors in a reaction buffer consisting of 50 mM HEPES, pH 7.5, 10 mM MgCb, 1.0 mM EGTA, and 0.01% Brij-35, and 100-200 nM GFP-eIF2a substrate. […] Add test compound, initiate the reaction by addition of enzyme, and incubate at room temperature for 45 minutes. Stop the reaction by addition of EDTA to a final concentration of 10 mM, add Terbium-labelled phospho-eIF2a antibody at a final concentration of 2 nM, and incubate for 90 minutes. Monitor the resulting fluorescence in an EnVison® Multilabel reader (PerkinElmer, Waltham, MA). Determine TR-FRET ratios and the resulting IC50 values using a 4-parameter nonlinear logistic equation as shown: Y=(A+((B−A)/(1+((C/x)[…])))) where, Y=% specific inhibition, A=Bottom of the curve, B=Top of the curve, C=absolute IC50 (concentration causing 50% inhibition), and D=hill slope.

Another assay has as its target PERK (Homo sapiens (Human), UniProt Q9NZJ5). Kind of assay: PERK cellular assay (TR-FRET, HEK293-EGFP-eIF2α cells, tunicamycin-induced ER stress). The assay is classed as cell-based. The settings on record: tunicamycin 2 hours, read-out: Cellular IC50 (μM) (EIF2a). As to the method:
Stable cell lines were created in HEK293 cells using lentiviral particles harboring an expression vector for GFP-eIF2α. Cells were selected using puromycin and enriched using fluorescence activated cell sorting against GFP. HEK293-EGFP-eIF2α cells were plated at 5000 cells/well in 384-well assay plates and incubated overnight at 37° C., 5% CO2. Inhibitor compounds were added to the wells by Echo acoustic dispensing and incubated for 30 minutes at 37° C., 5% CO2 prior to induction of ER stress by addition of tunicamycin to […] for 2 hours. Cells were lysed and TR-FRET was measured in an EnVision plate reader (PerkinElmer). FRET ratio data was normalized to signal from lysates treated with DMSO vehicle control and plotted as percent inhibition against 10-point; 3-fold dilution series of inhibitors. IC50 values were calculated using 4-parameter logistical fitting in XLFit.

Each structure is given as a SMILES string.

The IC50 is the concentration needed to halve the response being measured.

Chain of PERK (Q9NZJ5 30-1116): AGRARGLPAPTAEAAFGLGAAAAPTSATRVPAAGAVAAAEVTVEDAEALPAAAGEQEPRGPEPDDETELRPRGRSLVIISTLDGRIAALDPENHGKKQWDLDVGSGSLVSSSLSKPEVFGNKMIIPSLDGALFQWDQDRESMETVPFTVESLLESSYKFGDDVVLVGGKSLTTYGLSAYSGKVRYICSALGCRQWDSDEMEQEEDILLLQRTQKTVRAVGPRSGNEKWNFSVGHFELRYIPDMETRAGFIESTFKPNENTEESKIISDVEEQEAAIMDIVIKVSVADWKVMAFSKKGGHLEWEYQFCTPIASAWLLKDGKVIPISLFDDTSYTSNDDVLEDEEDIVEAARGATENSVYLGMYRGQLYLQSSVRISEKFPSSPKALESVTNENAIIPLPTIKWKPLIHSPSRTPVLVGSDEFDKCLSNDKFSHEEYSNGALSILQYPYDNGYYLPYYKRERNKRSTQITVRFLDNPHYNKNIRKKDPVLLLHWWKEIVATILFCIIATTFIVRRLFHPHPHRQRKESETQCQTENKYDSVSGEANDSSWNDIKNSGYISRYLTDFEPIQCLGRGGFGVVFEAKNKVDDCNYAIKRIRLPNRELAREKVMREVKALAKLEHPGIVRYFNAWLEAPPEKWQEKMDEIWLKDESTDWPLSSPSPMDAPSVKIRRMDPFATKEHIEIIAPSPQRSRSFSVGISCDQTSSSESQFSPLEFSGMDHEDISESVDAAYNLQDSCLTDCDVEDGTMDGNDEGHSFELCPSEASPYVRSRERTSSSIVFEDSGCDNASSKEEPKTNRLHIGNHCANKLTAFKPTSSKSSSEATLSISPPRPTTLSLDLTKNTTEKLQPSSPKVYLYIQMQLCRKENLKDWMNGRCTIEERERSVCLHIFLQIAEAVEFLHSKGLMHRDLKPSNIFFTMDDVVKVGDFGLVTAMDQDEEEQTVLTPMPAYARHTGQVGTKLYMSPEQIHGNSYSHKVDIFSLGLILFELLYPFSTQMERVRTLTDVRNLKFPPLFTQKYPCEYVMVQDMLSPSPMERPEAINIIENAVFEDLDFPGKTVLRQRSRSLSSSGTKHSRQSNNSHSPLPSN
Chain of EIF2AK3 (PERK) catalytic domain (amino acids 536-1116) (Q9NZJ5 536-1116): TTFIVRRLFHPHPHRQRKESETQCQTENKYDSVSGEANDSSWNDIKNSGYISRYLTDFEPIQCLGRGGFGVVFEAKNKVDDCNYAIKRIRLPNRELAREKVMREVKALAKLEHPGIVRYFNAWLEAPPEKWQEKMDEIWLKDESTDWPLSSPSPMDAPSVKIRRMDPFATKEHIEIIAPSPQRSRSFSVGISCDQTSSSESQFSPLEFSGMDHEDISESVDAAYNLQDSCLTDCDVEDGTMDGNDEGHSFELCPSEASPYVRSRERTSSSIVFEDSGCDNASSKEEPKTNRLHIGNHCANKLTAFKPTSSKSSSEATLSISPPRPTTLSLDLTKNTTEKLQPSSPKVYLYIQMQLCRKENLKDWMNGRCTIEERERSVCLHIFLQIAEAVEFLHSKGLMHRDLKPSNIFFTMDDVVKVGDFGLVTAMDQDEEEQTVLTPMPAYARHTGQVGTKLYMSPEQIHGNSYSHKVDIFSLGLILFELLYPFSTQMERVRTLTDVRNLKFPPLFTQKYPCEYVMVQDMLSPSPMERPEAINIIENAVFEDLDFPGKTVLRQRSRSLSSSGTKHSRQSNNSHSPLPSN

For the molecule `CC(C)NC(=O)c1cc(-c2ccc(NC(=O)C(O)c3cc(F)cc(F)c3)cc2Cl)cnc1N` (single isomer, unassigned) [Example 34], the half-inhibitory concentration (IC50) lay in the range of 1 to 25 nM in assay [1] and 0.001 to 0.025 µM at PERK.

Turning to `CC(C)NC(=O)c1cc(-c2ccc(NC(=O)C(O)c3cc(F)cc(F)c3)cc2Cl)cnc1N` (single isomer, unassigned) [Example 35], the half-maximal inhibitory concentration (IC50) fell in the range of 51 to 100 nM in assay [1] and 0.101 to 0.25 µM at PERK.

For `CCc1cc(NC(=O)C(O)c2cc(F)cc(F)c2)ccc1-c1cnc(N)c(C(=O)NC(C)C)c1` (single isomer, unassigned) [Example 38, 2-amino-5-(4-(2-(3,5-difluorophenyl)-2-hydroxyacetamido)-2-ethylphenyl)-N-isopropylnicotinamide], the IC50 in assay [1] was in the range of 1 to 25 nM; on PERK it was 0.001 to 0.025 µM.

For the molecule `CCc1cc(NC(=O)C(O)c2cc(F)cc(F)c2)ccc1-c1cnc(N)c(C(=O)NC(C)C)c1` (single isomer, unassigned) [Example 39, 2-amino-5-(4-(2-(3,5-difluorophenyl)-2-hydroxyacetamido)-2-ethylpehnyl)-N-isopropylnicotinamide], the results for the concentration for half-maximal inhibition (IC50) (in assay [1]; at PERK) were 101 to 250 nM and 0.101 to 0.25 µM, respectively.

On to `Cc1cc(NC(=O)C(O)c2cc(F)cc(F)c2)ccc1-c1cnc(N)c(C(=O)OC(C)C)c1` (single isomer, unassigned) [Example 42, isopropyl 2-amino-5-(4-(2-(3,5-difluorophenyl)-2-hydroxyacetamido)-2-methylphenyl) nicotinate], for which the 50% inhibitory concentration (IC50) in assay [1] was 1 to 25 nM; at PERK, 0.026 to 0.05 µM.

Take `Cc1cc(NC(=O)C(O)c2cc(F)cc(F)c2)ccc1-c1cnc(N)c(C(=O)OC(C)C)c1` (single isomer, unassigned) [Example 43, isopropyl 2-amino-5-(4-(2-(3,5-difluorophenyl)-2-hydroxyacetamido)-2-methylphenyl) nicotinate]: the IC50 in assay [1] lay in the range of 51 to 100 nM; on PERK it was 0.251 to 0.5 µM.

Turning to `CCc1cccc(C(O)C(=O)Nc2ccc(-c3cnc(N)c(C(=O)NC(C)C)c3)c(C)c2)c1` (single isomer, unassigned) [Example 72, 2-amino-5-(4-(2-(3-ethylphenyl)-2-hydroxyacetamido)-2-methylphenyl)-N-isopropylnicotinamide], the results for the IC50 (in assay [1]; at PERK) were 1 to 25 nM and 0.001 to 0.025 µM, respectively.

Take `CCc1cccc(C(O)C(=O)Nc2ccc(-c3cnc(N)c(C(=O)NC(C)C)c3)c(C)c2)c1` (single isomer, unassigned) [Example 73, 2-amino-5-(4-(2-(3-ethylphenyl)-2-hydroxyacetamido)-2-methylphenyl)-N-isopropylnicotinamide]: the values for the IC50 (in assay [1]; at PERK) were 101 to 250 nM and 0.251 to 0.5 µM, respectively.

Turning to `CCc1cc(NC(=O)C(O)c2cccc(Cl)c2)ccc1-c1cnc(N)c(C(=O)NC(C)C)c1` (single isomer, unassigned) [Example 108, 2-amino-5-(4-(2-(3-chlorophenyl)-2-hydroxyacetamido)-2-ethylphenyl)-N-isopropylnicotinamide], the half-maximal inhibitory concentration (IC50) was in the range of 1 to 25 nM in assay [1] and 0.001 to 0.025 µM at PERK.

With `CCc1cc(NC(=O)C(O)c2cccc(Cl)c2)ccc1-c1cnc(N)c(C(=O)NC(C)C)c1` (single isomer, unassigned) [Example 109, 2-amino-5-(4-(2-(3-chlorophenyl)-2-hydroxyacetamido)-2-ethylphenyl)-N-isopropylnicotinamide], the 50% inhibitory concentration (IC50) in assay [1] was 51 to 100 nM; at PERK it was 0.101 to 0.25 µM.

In the case of `CCc1cc(NC(=O)C(O)c2cc(F)cc(F)c2)ccc1-c1cnc(N)c(C(=O)NCC(F)(F)F)n1` (single isomer, unassigned) [Example 154, 3-amino-6-(4-(2-(3,5-difluorophenyl)-2-hydroxyacetamido)-2-ethylphenyl)-N-(2,2,2-trifluoroethyl) pyrazine-2-carboxamide], the results for the IC50 (in assay [1]; on PERK) were 1 to 25 nM and 0.001 to 0.025 µM, respectively.

On to `CCc1cc(NC(=O)C(O)c2cc(F)cc(F)c2)ccc1-c1cnc(N)c(C(=O)NCC(F)(F)F)n1` (single isomer, unassigned) [Example 155, 3-amino-6-(4-(2-(3,5-difluorophenyl)-2-hydroxyacetamido)-2-ethylphenyl)-N-(2,2,2-trifluoroethyl) pyrazine-2-carboxamide], for which the IC50 in assay [1] fell in the range of 101 to 250 nM; on PERK, 0.101 to 0.25 µM.

As for `Cc1cc(NC(=O)C(C)(O)c2ccccc2)ccc1-c1cnc(N)c(C(=O)NC(C)C)c1` (centres unmarked) [Example 3, 2-amino-5-(4-(2-hydroxy-2-phenylpropanamido)-2-methylphenyl)-N-isopropylnicotinamide], the values for the concentration for half-maximal inhibition (IC50) (in assay [1]; at PERK) were 101 to 250 nM and 2 to 3 µM, respectively.

Consider `Cc1cc(NC(=O)C(C)(O)c2ccccc2)ccc1-c1cnc(N)c(C(=O)NC(C)C)c1` (centres unmarked) [Example 4, 2-amino-5-(4-(2-hydroxy-2-phenylpropanamido)-2-methylphenyl)-N-isopropylnicotinamide], for which the concentration for half-maximal inhibition (IC50) in assay [1] lay in the range of 101 to 250 nM; at PERK, 3 to 4 µM.

`COC(C(=O)Nc1ccc(-c2cnc(N)c(C(=O)NC(C)C)c2)c(C)c1)c1ccccc1` (centres unmarked) [Example 5, 2-amino-N-isopropyl-5-(4-(2-methoxy-2-phenylacetamido)-2-methylphenyl) nicotinamide]: the IC50 in assay [1] fell in the range of 1000 to 2000 nM; at PERK it was 3 to 4 µM.

As for `Cc1cc(NC(=O)C(N)c2ccccc2)ccc1-c1cnc(N)c(C(=O)NC(C)C)c1` (centres unmarked) [Example 6, 2-amino-5-(4-(2-amino-2-phenylacetamido)-2-methylphenyl)-N-isopropyl-nicotinamide], the figures for the IC50 (in assay [1]; on PERK) were 1000 to 2000 nM and 3 to 4 µM, respectively.

Turning to `Cc1cc(NC(=O)C(N)c2ccccc2)ccc1-c1cnc(N)c(C(=O)NC(C)C)c1` (centres unmarked) [Example 7, 2-amino-5-(4-(2-amino-2-phenylacetamido)-2-methylphenyl)-N-isopropylnicotinamide], the results for the IC50 (in assay [1]; on PERK) were 1000 to 2000 nM and > 5 µM, respectively.

Take `Cc1cc(NC(=O)C(O)c2cc(F)cc(F)c2)ccc1-c1cnc(N)c(C(=O)NC(C)C)c1` (centres unmarked) [Example 8, 2-amino-5-(4-(2-(3,5-difluorophenyl)-2-hydroxyacetamido)-2-methylphenyl)-N-isopropyl nicotinamide]: the IC50 in assay [1] lay within 1 to 25 nM; on PERK it was 0.026 to 0.05 µM.

In the case of `Cc1cc(NC(=O)C(O)c2cc(F)cc(F)c2)ccc1-c1cnc(N)c(C(=O)NC(C)C)c1` (centres unmarked) [Example 9, 2-amino-5-(4-(2-(3,5-difluorophenyl)-2-hydroxyacetamido)-2-methylphenyl)-N-isopropyl nicotinamide], the IC50 in assay [1] is 26 to 50 nM; at PERK, 0.101 to 0.25 µM.

With `Cc1cc(NC(=O)[C@H](O)c2cc(F)cc(F)c2)ccc1-c1cnc(N)c(C(=O)NC2CC2)c1` [Example 14, (R)-2-amino-N-cyclopropyl-5-(4-(2-(3,5-difluorophenyl)-2-hydroxyacetamido)-2-methylphenyl)nicotinamide], the IC50 lay within 1 to 25 nM in assay [1] and 0.026 to 0.05 µM on PERK.

Take `Cc1cc(NC(=O)C(O)c2cc(F)cc(F)c2)ccc1-c1cnc(N)c(C(=O)NC2CC2)c1` (centres unmarked) [Example 15, 2-amino-N-cyclopropyl-5-(4-(2-(3,5-difluorophenyl)-2-hydroxyacetamido)-2-methylphenyl) nicotinamide]: the IC50 in assay [1] was in the range of 26 to 50 nM; on PERK, 0.251 to 0.5 µM.

Regarding `Cc1cc(NC(=O)C(O)c2cc(F)cc(F)c2)ccc1-c1cnc(N)c(C(=O)NCC(C)C)c1` (centres unmarked) [Example 20, 2-amino-5-(4-(2-(3,5-difluorophenyl)-2-hydroxyacetamido)-2-methylphenyl)-N-isobutylnicotinamide], the IC50 fell in the range of 1 to 25 nM in assay [1] and 0.026 to 0.05 µM at PERK.

Take `Cc1cc(NC(=O)C(O)c2cc(F)cc(F)c2)ccc1-c1cnc(N)c(C(=O)NCC(C)C)c1` (centres unmarked) [Example 21, 2-amino-5-(4-(2-(3,5-difluorophenyl)-2-hydroxyacetamido)-2-methylphenyl)-N-isobutylnicotinamide]: the values for the concentration for half-maximal inhibition (IC50) (in assay [1]; on PERK) were 101 to 250 nM and 0.251 to 0.5 µM, respectively.

Consider `Cc1cc(NC(=O)C(O)c2cc(F)cc(F)c2)ccc1-c1cnc(N)c(C(=O)N(C)C)c1` (centres unmarked) [Example 22, 2-amino-5-(4-(2-(3,5-difluorophenyl)-2-hydroxyacetamido)-2-methylphenyl)-N,N-dimethylnicotinamide], for which the half-maximal inhibitory concentration (IC50) was in the range of 501 to 1000 nM in assay [1] and 2 to 3 µM at PERK.

Turning to `Cc1cc(NC(=O)C(O)c2cc(F)cc(F)c2)ccc1-c1cnc(N)c(C(=O)N(C)C)c1` (centres unmarked) [Example 23, 2-amino-5-(4-(2-(3,5-difluorophenyl)-2-hydroxyacetamido)-2-methylphenyl)-N,N-dimethylnicotinamide], the half-inhibitory concentration (IC50) is > 5000 nM in assay [1] and > 5 µM at PERK.

The values are drawn from patent US12473296B2, “Perk inhibiting compounds” (HiberCell, Inc., priority 2019, dated 2025).
